Data published in US20050148553A1, “Use of tigecycline, alone, or in combination with rifampin to treat osteomyelitis and/or septic arthritis” (priority 2003, published 2005).

Experiment: Whole body autoradiography after 30-minute 3 mg/kg IV infusion of [^14C]-tigecycline
Format: in vivo, Sprague-Dawley rats
Protocol: Male Sprague-Dawley and Long-Evans rats were obtained from Charles River Breeding Laboratories, Raleigh, N.C., and were quarantined for at least one week prior to the start of the study. […] The dosing solution was diluted and radioassayed directly in Ultima Gold scintillation counting cocktail (Packard Inc.). […] All pumps were calibrated prior to the administration of the compound. Rats were anesthetized with isoflurane prior to cardiac puncture exsanguination at the prescribed times after dosing. […] Control whole blood was collected from male Sprague-Dawley rats into tubes containing sodium heparin. Pooled blood was used to prepare the calibration standards and quality control samples. The standards were used to construct the standard curve for the quantification of radiolabeled drug distribution in tissues of whole blood cryosections. The quality controls, which were embedded in the same CMC block with each rat, were used for assessing intra- and inter-section variation in the thickness of rat whole-body cryosections. […] Immediately following euthanasia, each rat was totally immersed in a bath of hexane and dry ice (−75° C.) until frozen. Each carcass was dried and stored at −30° C. until embedded. […] Each frozen rat was sagitally sectioned at −20° C. A sufficient number of sections were collected to ensure sampling of all tissues of interest. The sections were dehydrated overnight in a cryochamber and then rapidly transferred to a dessicator containing CaSO4 to prevent condensation of atmospheric moisture while equilibrating to room temperature. The sections were mounted on cardboard and labeled with [^14C]-labeled black ink with a unique identification number. […] A small piece of Scotch tape was placed over the dried radioactive ink to prevent the contamination of the storage phosphor screens. Phosphor imaging plates, BAS-SR 2025 (Fuji Photo Film Co., Japan) were exposed to bright visible light for 20 minutes using an IP eraser (Raytest, USA Inc., New Castle, Del.) to remove background radiation. Sections and calibration blood standards were concurrently placed in direct contact with Ips and exposed for 7 days. All sections were stored at room temperature in a lead shielding box to minimize background levels. Phosphor images were generated using a Fujifilm BAS-5000 Bio-Imaging Analyzer and quantitated by MCID M2 Software, version 3.2 (Imaging Research Inc., St. Catherines, Ontario, Canada). The STDs and QCs were analyzed using the circular sampling tool in the MCID software program. Areas of interest in whole-body sections were manually outlined with the regional sampling tool to generate count data. Radioactive concentrations in select tissues were determined by digital analysis of the resulting autoradiograms on the basis of a calibration curve. […] The linear regression curve was then used to determine the concentration of unknown radioactivity of study samples. […] Blood samples were combusted using a Model 307 sample oxidizer (Packard Instrument Company). […] Research Triangle Park, N.C.), which applies a model-independent approach and standard procedures as described in Gibaldi and Perrier. Gibaldi, Pharmacokinetics, 1982. […] For IV infusion dosing, C30 min was the concentration at 30 minutes, the first sampling time point. The maximum plasma concentration (Cmax) and the corresponding time of peak concentration following IV administration were obtained directly by numerical inspection from the individual concentration-time data. The terminal half-life was calculated by the ratio of ln2/λz where λz is derived from the terminal slope of the concentration time curve. The area under the plasma concentration versus time curve from zero to infinity was calculated using the trapezoidal rule, where Clast is the last measurable plasma concentration. […]

Structure (SMILES): CN(C)c1cc(NC(=O)CNC(C)(C)C)c(O)c2c1C[C@H]1C[C@H]3[C@H](N(C)C)C(O)=C(C(N)=O)C(=O)[C@@]3(O)C(O)=C1C2=O [[^14C]-Tigecycline]
- AUC (Adrenal Gland): 29515 Ng eq hr/g
- Mean concentration of total radioactivity (Adrenal Gland, 0.5 Hrs): 3580 ng equiv./g
- Tissue:Plasma Ratio (Adrenal Gland, 0.5 Hrs): 4.00
- Mean concentration of total radioactivity (Adrenal Gland, 8.5 Hrs): 941 ng equiv./g
- Tissue:Plasma Ratio (Adrenal Gland, 8.5 Hrs): 1.87
- Mean concentration of total radioactivity (Adrenal Gland, 24 Hrs): 68.9 ng equiv./g
- Tissue:Plasma Ratio (Adrenal Gland, 24 Hrs): 4.67
- Mean concentration of total radioactivity (Adrenal Gland, 72 Hrs): 19.3 ng equiv./g
- Tissue:Plasma Ratio (Adrenal Gland, 72 Hrs): 4.47
- Mean concentration of total radioactivity (Adrenal Gland, 168 Hrs): <5.10 ng equiv./g
- Mean concentration of total radioactivity (Adrenal Gland, 336 Hrs): <5.10 ng equiv./g
- AUC (Adrenal Gland, first AUC column): 29153 Ng eq hr/g
- AUC (Blood): 1261 Ng eq hr/g
- Tissue:Plasma Ratio (Blood, 0.5 Hrs): 1.43
- Tissue:Plasma Ratio (Blood, 8.5 Hrs): 1.24
- Tissue:Plasma Ratio (Blood, 24 Hrs): 3.01
- Tissue:Plasma Ratio (Blood, 72 Hrs): 2.74
- AUC (Blood, first AUC column): 12063 Ng eq hr/g
- AUC (Bone): 794704 Ng eq hr/g
- AUC (Bone Marrow): 47468 Ng eq hr/g
- Mean concentration of total radioactivity (Bone Marrow, 0.5 Hrs): 4376 ng equiv./g
- Tissue:Plasma Ratio (Bone Marrow, 0.5 Hrs): 4.89
- Mean concentration of total radioactivity (Bone Marrow, 8.5 Hrs): 1562 ng equiv./g
- Tissue:Plasma Ratio (Bone Marrow, 8.5 Hrs): 3.10
- Mean concentration of total radioactivity (Bone Marrow, 24 Hrs): 291 ng equiv./g
- Tissue:Plasma Ratio (Bone Marrow, 24 Hrs): 19.7
- Mean concentration of total radioactivity (Bone Marrow, 72 Hrs): 22.5 ng equiv./g
- Tissue:Plasma Ratio (Bone Marrow, 72 Hrs): 5.21
- Mean concentration of total radioactivity (Bone Marrow, 168 Hrs): <5.10 ng equiv./g
- Mean concentration of total radioactivity (Bone Marrow, 336 Hrs): <5.10 ng equiv./g
- AUC (Bone Marrow, first AUC column): 47116 Ng eq hr/g
- Mean concentration of total radioactivity (Bone, 0.5 Hrs): 3312 ng equiv./g
- Tissue:Plasma Ratio (Bone, 0.5 Hrs): 3.70
- Mean concentration of total radioactivity (Bone, 8.5 Hrs): 3794 ng equiv./g
- Tissue:Plasma Ratio (Bone, 8.5 Hrs): 7.53
- Mean concentration of total radioactivity (Bone, 24 Hrs): 2711 ng equiv./g
- Tissue:Plasma Ratio (Bone, 24 Hrs): 184
- Mean concentration of total radioactivity (Bone, 72 Hrs): 1787 ng equiv./g
- Tissue:Plasma Ratio (Bone, 72 Hrs): 414
- Mean concentration of total radioactivity (Bone, 168 Hrs): 1526 ng equiv./g
- Mean concentration of total radioactivity (Bone, 336 Hrs): 720 ng equiv./g
- AUC (Bone, first AUC column): 569498 Ng eq hr/g
- AUC (Brain): 2865 Ng eq hr/g
- Cmax (Brain): 54 Ng equiv/g
- Mean concentration of total radioactivity (Brain, 0.5 Hrs): 35.8 ng equiv./g
- Tissue:Plasma Ratio (Brain, 0.5 Hrs): 0.040
- Mean concentration of total radioactivity (Brain, 8.5 Hrs): 54.3 ng equiv./g
- Tissue:Plasma Ratio (Brain, 8.5 Hrs): 0.108
- Mean concentration of total radioactivity (Brain, 24 Hrs): 35.8 ng equiv./g
- Tissue:Plasma Ratio (Brain, 24 Hrs): 2.42
- Mean concentration of total radioactivity (Brain, 72 Hrs): 13.3 ng equiv./g
- Tissue:Plasma Ratio (Brain, 72 Hrs): 3.10
- Mean concentration of total radioactivity (Brain, 168 Hrs): <5.10 ng equiv./g
- Mean concentration of total radioactivity (Brain, 336 Hrs): <5.10 ng equiv./g
- AUC (Brain, first AUC column): 2256 Ng eq hr/g
- AUC (Eyes): 3221 Ng eq hr/g
- Cmax (Eyes): 108 Ng equiv/g
- Mean concentration of total radioactivity (Eyes, 0.5 Hrs): 106 ng equiv./g
- Tissue:Plasma Ratio (Eyes, 0.5 Hrs): 0.118
- Mean concentration of total radioactivity (Eyes, 8.5 Hrs): 108 ng equiv./g
- Tissue:Plasma Ratio (Eyes, 8.5 Hrs): 0.215
- Mean concentration of total radioactivity (Eyes, 24 Hrs): 36.6 ng equiv./g
- Tissue:Plasma Ratio (Eyes, 24 Hrs): 2.46
- Mean concentration of total radioactivity (Eyes, 72 Hrs): 6.76 ng equiv./g
- Tissue:Plasma Ratio (Eyes, 72 Hrs): 1.57
- Mean concentration of total radioactivity (Eyes, 168 Hrs): <5.10 ng equiv./g
- Mean concentration of total radioactivity (Eyes, 336 Hrs): <5.10 ng equiv./g
- AUC (Eyes, first AUC column): 3060 Ng eq hr/g
- AUC (Fat): 3500 Ng eq hr/g
- Mean concentration of total radioactivity (Fat, 0.5 Hrs): 450 ng equiv./g
- Tissue:Plasma Ratio (Fat, 0.5 Hrs): 0.50
- Mean concentration of total radioactivity (Fat, 8.5 Hrs): 144 ng equiv./g
- Tissue:Plasma Ratio (Fat, 8.5 Hrs): 0.287
- Mean concentration of total radioactivity (Fat, 24 Hrs): <5.1 ng equiv./g
- Mean concentration of total radioactivity (Fat, 72 Hrs): <5.10 ng equiv./g
- Mean concentration of total radioactivity (Fat, 168 Hrs): <5.10 ng equiv./g
- Mean concentration of total radioactivity (Fat, 336 Hrs): <5.10 ng equiv./g
- AUC (Fat, first AUC column): 2489 Ng eq hr/g
- AUC (Heart): 40179 Ng eq hr/g
- Mean concentration of total radioactivity (Heart, 0.5 Hrs): 5657 ng equiv./g
- Tissue:Plasma Ratio (Heart, 0.5 Hrs): 6.32
- Mean concentration of total radioactivity (Heart, 8.5 Hrs): 1138 ng equiv./g
- Tissue:Plasma Ratio (Heart, 8.5 Hrs): 2.26
- Mean concentration of total radioactivity (Heart, 24 Hrs): 69.9 ng equiv./g
- Tissue:Plasma Ratio (Heart, 24 Hrs): 4.74
- Mean concentration of total radioactivity (Heart, 72 Hrs): 6.98 ng equiv./g
- Tissue:Plasma Ratio (Heart, 72 Hrs): 1.62
- Mean concentration of total radioactivity (Heart, 168 Hrs): <5.10 ng equiv./g
- Mean concentration of total radioactivity (Heart, 336 Hrs): <5.10 ng equiv./g
- AUC (Heart, first AUC column): 40083 Ng eq hr/g
- AUC (Kidney): 70704 Ng eq hr/g
- Cmax (Kidney): 7601 Ng equiv/g
- Mean concentration of total radioactivity (Kidney, 0.5 Hrs): 7601 ng equiv./g
- Tissue:Plasma Ratio (Kidney, 0.5 Hrs): 8.49
- Mean concentration of total radioactivity (Kidney, 8.5 Hrs): 1725 ng equiv./g
- Tissue:Plasma Ratio (Kidney, 8.5 Hrs): 3.42
- Mean concentration of total radioactivity (Kidney, 24 Hrs): 140 ng equiv./g
- Tissue:Plasma Ratio (Kidney, 24 Hrs): 9.49
- Mean concentration of total radioactivity (Kidney, 72 Hrs): 47.9 ng equiv./g
- Tissue:Plasma Ratio (Kidney, 72 Hrs): 11.1
- Mean concentration of total radioactivity (Kidney, 168 Hrs): 41.3 ng equiv./g
- Mean concentration of total radioactivity (Kidney, 336 Hrs): 13.9 ng equiv./g
- AUC (Kidney, first AUC column): 68333 Ng eq hr/g
- AUC (Liver): 53527 Ng eq hr/g
- Cmax (Liver): 7300 Ng equiv/g
- Mean concentration of total radioactivity (Liver, 0.5 Hrs): 7300 ng equiv./g
- Tissue:Plasma Ratio (Liver, 0.5 Hrs): 8.16
- Mean concentration of total radioactivity (Liver, 8.5 Hrs): 1192 ng equiv./g
- Tissue:Plasma Ratio (Liver, 8.5 Hrs): 2.37
